Like-named read-outs stand apart in the source and are kept apart here.
How the values were obtained:
[1] = target: BChE from equine serum (Equus caballus, UniProt P81908); assay: biochemical; assay type: biochemical; details: for inhibition at 25 µg/mL: read-out: % of inhibition at 25 μg/mL BChE; for BChE inhibition described in words: structure-activity discussion
[2] = target: AChE from electric eel (Electrophorus electricus, UniProt O42275); assay: biochemical; details: read-out: % of inhibition at 25 μg/mL AChE
[3] = target: BChE (Equus caballus, UniProt P81908); assay: Kinetic characterization of BChE inhibition (Lineweaver–Burk plots, secondary plots); assay type: biochemical, equine; details: for Mode of BChE inhibition: Lineweaver–Burk plots; for Ki: estimated by secondary plots of Lineweaver–Burk plots, substrate BTCI
Description: […]. Five increasing concentrations of BTCI as a substrate in the presence of three different concentrations of compound were used in the kinetic measurement. The concentrations of the enzyme and DNTB used in the determination are 0.226 U/mL and 3 mM respectively. The inhibition constants (Ki) of the inhibitors were determined by the secondary plots which constructed using the slopes of the Lineweaver–Burk plots.

Sequence of BChE (P81908 whole entry): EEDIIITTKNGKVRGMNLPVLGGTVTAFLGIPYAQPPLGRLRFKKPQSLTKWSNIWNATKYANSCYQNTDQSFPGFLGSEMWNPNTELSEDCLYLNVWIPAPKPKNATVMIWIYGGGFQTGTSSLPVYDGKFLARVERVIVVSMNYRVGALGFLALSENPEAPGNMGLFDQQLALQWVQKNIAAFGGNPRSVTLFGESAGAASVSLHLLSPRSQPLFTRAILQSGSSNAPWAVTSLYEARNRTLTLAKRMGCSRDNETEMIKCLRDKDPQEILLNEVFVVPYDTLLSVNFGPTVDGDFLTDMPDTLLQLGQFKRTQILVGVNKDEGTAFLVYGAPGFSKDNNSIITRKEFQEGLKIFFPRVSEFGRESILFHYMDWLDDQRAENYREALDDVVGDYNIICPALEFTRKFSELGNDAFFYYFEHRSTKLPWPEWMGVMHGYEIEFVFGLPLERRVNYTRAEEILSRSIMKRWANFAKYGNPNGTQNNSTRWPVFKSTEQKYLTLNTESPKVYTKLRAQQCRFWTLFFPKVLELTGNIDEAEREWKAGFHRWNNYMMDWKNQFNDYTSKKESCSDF
Sequence of BChE from equine serum (P81908 whole entry): as above
Sequence of AChE from electric eel (O42275 24-633): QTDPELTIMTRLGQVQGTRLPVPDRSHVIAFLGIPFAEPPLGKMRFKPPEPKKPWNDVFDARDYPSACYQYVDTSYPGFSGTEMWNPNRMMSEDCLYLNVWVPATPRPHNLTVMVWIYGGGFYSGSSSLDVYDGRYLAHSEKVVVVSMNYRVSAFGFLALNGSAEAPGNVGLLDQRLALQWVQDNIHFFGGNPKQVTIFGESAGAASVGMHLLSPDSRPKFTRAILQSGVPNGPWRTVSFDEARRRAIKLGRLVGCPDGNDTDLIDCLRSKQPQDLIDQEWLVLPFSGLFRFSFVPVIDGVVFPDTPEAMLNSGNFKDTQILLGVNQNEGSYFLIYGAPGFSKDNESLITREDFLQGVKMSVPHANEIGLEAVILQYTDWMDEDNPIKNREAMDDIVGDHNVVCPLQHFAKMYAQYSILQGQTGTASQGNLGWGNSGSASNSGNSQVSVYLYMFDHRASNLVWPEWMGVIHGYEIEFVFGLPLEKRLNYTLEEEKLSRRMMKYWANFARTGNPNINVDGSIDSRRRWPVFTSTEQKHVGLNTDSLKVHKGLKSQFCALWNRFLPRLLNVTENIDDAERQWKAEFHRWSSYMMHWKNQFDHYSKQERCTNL

Compound: COc1cccc(CCc2cc(OC)cc(O)c2Cc2ccc(O)cc2)c1 [Compound 1, gymconopin D]
- Selectivity ratio [1]: > 1.7
- IC50 ([1]; mean ± SD of three experiments): 40.5 ± 5.6 µM
- inhibition at 25 µg/mL [1]: 66.2 ± 3.4%
- inhibition at 25 µg/mL [2]: 48.1 ± 6.3%

Compound: COc1cccc(CCc2cc(O)cc(OC)c2Cc2ccc(O)cc2)c1 [Compound 2, bulbocol]
- Selectivity ratio [1]: > 2.1
- IC50 ([1]; mean ± SD of three experiments): 33.5 ± 3.7 µM
- inhibition at 25 µg/mL [1]: 67.7 ± 0.3%
- inhibition at 25 µg/mL [2]: 16.3 ± 3.8%

Compound: COc1cc(O)cc(CCc2cccc(O)c2)c1Cc1ccc(O)cc1 [Compound 3, 3′,5-dihydroxy-2-(4-hydroxybenzyl)-3-methoxybibenzyl]
- IC50 ([1]; mean ± SD of three experiments): 80.3 ± 5.2 µM
- inhibition at 25 µg/mL [1]: 51.3 ± 2%
- inhibition at 25 µg/mL [2]: 5 ± 1.5%

Compound: COc1cc(O)c(Cc2ccc(O)cc2)c(CCc2cccc(O)c2)c1 [Compound 4, isoarundinin II]
- inhibition at 25 µg/mL [1]: 39.3 ± 2.3%
- inhibition at 25 µg/mL [2]: 0.9 ± 0.8%

Compound: COc1cc(CCc2cccc(O)c2)cc(O)c1Cc1ccc(O)cc1 [Compound 5, 3,3′-dihydroxy-4-(4-hydroxybenzyl)-5-methoxybibenzyl]
- inhibition at 25 µg/mL [1]: 22.6 ± 2.1%
- inhibition at 25 µg/mL [2]: 2.6 ± 2.8%

Compound: COc1ccc2c(ccc3c(Cc4ccc(O)cc4)c(O)cc(OC)c32)c1O [Compound 6, 1-(p-hydroxybenzyl)-4,7-dimethoxyphenanthrene-2,8-diol]
- Selectivity ratio [1]: > 9.5
- IC50 ([1]; mean ± SD of three experiments): 6.4 ± 0.2 µM
- inhibition at 25 µg/mL [1]: 85.2 ± 2.9%
- inhibition at 25 µg/mL [2]: 20.4 ± 4.5%
- Mode of BChE inhibition [3]: mixed-type
- Ki [3]: 14 µM

Compound: COc1c(Cc2ccc(O)cc2)c(O)cc2c1-c1ccc(O)cc1CC2 [Compound 7, 3-(4-hydroxybenzyl)-4-methoxy-9,10-dihydrophenanthrene-2,7-diol]
- Selectivity ratio [1]: > 2.1
- IC50 ([1]; mean ± SD of three experiments): 34 ± 1.4 µM
- inhibition at 25 µg/mL [1]: 65.7 ± 0.7%
- inhibition at 25 µg/mL [2]: 9.6 ± 2.6%

Compound: COc1c(O)cc2ccc3c(Cc4ccc(O)cc4)c(O)ccc3c2c1OC [Compound 8, bleformin A]
- Selectivity ratio [1]: > 13.1
- IC50 ([1]; mean ± SD of three experiments): 5.2 ± 0.4 µM
- inhibition at 25 µg/mL [1]: 70 ± 1%
- inhibition at 25 µg/mL [2]: 18.5 ± 1.7%
- Mode of BChE inhibition [3]: mixed-type
- Ki [3]: 4.7 µM

Compound: COc1cc(O)c2c(c1Cc1ccc(O)cc1)CCc1cc(O)ccc1-2 [Compound 9, shancidin]
- Selectivity ratio [1]: > 4.3
- IC50 ([1]; mean ± SD of three experiments): 16.7 ± 2 µM
- inhibition at 25 µg/mL [1]: 72.8 ± 3.4%
- inhibition at 25 µg/mL [2]: 15.2 ± 3.6%

Compound: COc1cc(O)c(Cc2ccc(O)cc2)c2ccc3cc(O)ccc3c12 [Compound 10, 1-[(4-hydroxyphenyl)methyl]-4-methoxy-2,7-phenanthrenediol]
- Selectivity ratio [1]: > 34.7
- IC50 ([1]; mean ± SD of three experiments): 2.1 ± 0.3 µM
- inhibition at 25 µg/mL [1]: 96.6 ± 1.2%
- inhibition at 25 µg/mL [2]: 19.1 ± 3.8%
- Mode of BChE inhibition [3]: non-competitive
- Ki [3]: 5.4 µM

Compound: COc1c(Cc2ccc(O)cc2)c(O)c(Cc2ccc(O)cc2)c2c1-c1ccc(O)cc1CC2 [Compound 11, 2,7-dihydroxy-1,3-bi(p-hydroxybenzyl)-4-methoxy-9,10-dihydrophenanthrene]
- Selectivity ratio [1]: > 1.2
- IC50 ([1]; mean ± SD of three experiments): 44.6 ± 4.1 µM
- inhibition at 25 µg/mL [1]: 53.1 ± 1.2%
- inhibition at 25 µg/mL [2]: 20.1 ± 3.5%

Compound: COc1cc(O)c(Cc2ccc(O)cc2)c2ccc3c(Cc4ccc(O)cc4)c(O)ccc3c12 [Compound 12, 1,8-bis(4-hydroxybenzyl)-4-methoxyphenanthrene-2,7-diol]
- Selectivity ratio [1]: > 23.1
- IC50 ([1]; mean ± SD of three experiments): 2.3 ± 0.4 µM
- inhibition at 25 µg/mL [1]: 95.4 ± 0.3%
- inhibition at 25 µg/mL [2]: 16.1 ± 5%
- Mode of BChE inhibition [3]: non-competitive
- Ki [3]: 6.6 µM

Compound: COc1c(O)c(Cc2ccc(O)cc2)c2ccc3cc(O)ccc3c2c1OC [Compound 13, bleformin B]
- Selectivity ratio [1]: > 4.0
- IC50 ([1]; mean ± SD of three experiments): 16.7 ± 2.4 µM
- inhibition at 25 µg/mL [1]: 75.7 ± 1.1%
- inhibition at 25 µg/mL [2]: 9.9 ± 4.7%

Compound: COc1cc(O)cc2c1-c1ccc(Oc3c(O)cc(OC)c4c3ccc3cc(O)ccc34)cc1CC2 [Compound 14, blestrin D]
- Selectivity ratio [1]: > 6.8
- inhibition at 25 µg/mL ([1]; 25 μg/mL final concentration, mean ± SD of three experiments): 69 ± 2.5%
- IC50 ([1]; mean ± SD of three experiments): 8.1 ± 0.5 µM
- inhibition at 25 µg/mL [2]: 6.8 ± 1.6%
- Mode of BChE inhibition [3]: mixed-type
- Ki [3]: 10.9 µM

Compound: COc1cc(Oc2c(O)cc(OC)c3c2CCc2cc(O)ccc2-3)cc2c1-c1ccc(O)cc1CC2 [Compound 15, blestrin A]
- Selectivity ratio [1]: > 2.9
- IC50 ([1]; mean ± SD of three experiments): 17.9 ± 4.7 µM
- inhibition at 25 µg/mL [1]: 64 ± 2.6%
- inhibition at 25 µg/mL [2]: 8.4 ± 3.1%

Compound: COc1cc(Oc2c(O)cc(OC)c3c2ccc2cc(O)ccc23)cc2c1-c1ccc(O)cc1CC2 [Compound 16, blestrin C]
- Selectivity ratio [1]: > 4.3
- IC50 ([1]; mean ± SD of three experiments): 12.1 ± 3.4 µM
- inhibition at 25 µg/mL [1]: 64.3 ± 2.4%
- inhibition at 25 µg/mL [2]: 4.9 ± 3.2%

Compound: COc1cc(C2COc3cc(OC)c4c(c3C2O)CCc2cc(O)ccc2-4)ccc1O (stereo not shown) [Compound 17, shanciol F]
- inhibition at 25 µg/mL [1]: 21.8 ± 3.1%
- inhibition at 25 µg/mL [2]: 5.5 ± 1.8%

Compound: COc1cc([C@@H]2Oc3cc4c(cc3[C@H]2CO)-c2c(cc(O)cc2OC)CC4)ccc1O [Compound 18, bletilol D]
- inhibition at 25 µg/mL [1]: 31.6 ± 2.8%
- inhibition at 25 µg/mL [2]: 5.7 ± 2.8%

Compound: COc1cc(C2Oc3cc4c(c(OC)c3C2CO)-c2ccc(O)cc2CC4)ccc1O (stereo not shown) [Compound 19, 9-(4′-hydroxy-3′-methoxyphenyl)-10-(hydroxymethyl)-11-methoxy-5,6,9, 10-tetrahydrophenanthro[2,3-b] furan-3-ol]
- Selectivity ratio [1]: > 1.7
- IC50 ([1]; mean ± SD of three experiments): 35.8 ± 9.2 µM
- inhibition at 25 µg/mL [1]: 61.2 ± 1.3%
- inhibition at 25 µg/mL [2]: 3.3 ± 1.8%

Compound: COc1cc([C@@H]2Oc3cc(OC)c4c(c3[C@H]2Cc2c(O)cc(OC)c3c2CCc2cc(O)ccc2-3)CCc2cc(O)ccc2-4)ccc1O [Compound 20, Bletilol E]
- inhibition at 25 µg/mL [1]: 8 ± 2.4%
- BChE inhibition described in words [1]: weak inhibition potency
- inhibition at 25 µg/mL [2]: 5.1 ± 4%

Compound: COc1cc(O)cc(/C=C\c2cccc(O)c2)c1 [Compound 21, pholidotol D]
- inhibition at 25 µg/mL [1]: 29.1 ± 1.3%
- inhibition at 25 µg/mL [2]: 5.2 ± 3.2%

Compound: COc1cc(O)c(-c2c(O)cc(OC)c3c2CCc2cc(O)ccc2-3)c2c1-c1ccc(O)cc1CC2 [Compound 22, flavanthrin]
- Selectivity ratio [1]: > 1.2
- IC50 ([1]; mean ± SD of three experiments): 42.2 ± 5.1 µM
- inhibition at 25 µg/mL [1]: 56.7 ± 2%
- BChE inhibition described in words [1]: moderate efficacy
- inhibition at 25 µg/mL [2]: 13.3 ± 2.9%

Compound: COc1ccc2c3c1O[C@H]1C[C@@H](O)C=C[C@@]31CCN(C)C2 [Galantamine, reference compound]
- inhibition at 25 µg/mL [1]: 64.2 ± 0.6%

From article PMC9372051, “Biological evaluation, molecular modeling and dynamics simulation of phenanthrenes isolated from Bletilla striata as butyrylcholinesterase inhibitors” (Scientific Reports, 2022)
